Values quoted from earlier work as cited in patent publication US20030073580A1, “Composition for treating cells and method for qualitatively and quantitatively customizing the formulation thereof” (priority 2001, published 2003).
Read-outs that look alike come from different tables or passages of the source.

System: plant leaves
[1] = Sulfate 0.1 Mg SO4/L (0.0334 milligrams elemental S)
[2] = Sulfate 1.0 Mg SO4/L (0.3340 milligrams elemental S)
[3] = Sulfate 10.0 Mg SO4/L (3.3400 milligrams elemental S)
[4] = Sulfate 50.0 Mg SO4/L (16.7000 milligrams elemental S)
[5] = Sulfate 200.0 Mg SO4/L (66.8000 milligrams elemental S)

Compound: O=S(=O)(O)O [Sulfate]
- Inorganic S [1]: 0.003 Percentage of Dry Weight
- Leaf Dry Wt [1]: 1.1 g/plant
- Nitrate N [1]: 1.39 Percentage of Dry Weight
- Organic N [1]: 2.23 Percentage of Dry Weight
- Organic S [1]: 0.11 Percentage of Dry Weight
- Protein N [1]: 0.96 Percentage of Dry Weight
- Inorganic S [2]: 0.003 Percentage of Dry Weight
- Leaf Dry Wt [2]: 2.4 g/plant
- Nitrate N [2]: 1.37 Percentage of Dry Weight
- Organic N [2]: 2.21 Percentage of Dry Weight
- Organic S [2]: 0.12 Percentage of Dry Weight
- Protein N [2]: 1.28 Percentage of Dry Weight
- Inorganic S [3]: 0.009 Percentage of Dry Weight
- Leaf Dry Wt [3]: 3.4 g/plant
- Nitrate N [3]: 0.06 Percentage of Dry Weight
- Organic N [3]: 1.19 Percentage of Dry Weight
- Organic S [3]: 0.17 Percentage of Dry Weight
- Protein N [3]: 2.56 Percentage of Dry Weight
- Inorganic S [4]: 0.100 Percentage of Dry Weight
- Leaf Dry Wt [4]: 4.7 g/plant
- Nitrate N [4]: 0.00 Percentage of Dry Weight
- Organic N [4]: 0.51 Percentage of Dry Weight
- Organic S [4]: 0.26 Percentage of Dry Weight
- Protein N [4]: 3.25 Percentage of Dry Weight
- Inorganic S [5]: 0.360 Percentage of Dry Weight
- Leaf Dry Wt [5]: 4.7 g/plant
- Nitrate N [5]: 0.10 Percentage of Dry Weight
- Organic N [5]: 0.45 Percentage of Dry Weight
- Organic S [5]: 0.25 Percentage of Dry Weight
- Protein N [5]: 3.20 Percentage of Dry Weight

Compound: S1SSSSSSS1 [sulfur]
- free nitrate nitrogen in plant leaves (available sulfur approximately 16.7 mg per liter): zero
- optimal concentration of available sulfur in a fertilizer mixture (concentration at which free nitrate drops to zero and organic sulfur and protein nitrogen reach their maximum): approximately 16.7 mg per liter
